Measured values taken from patent US20160046582A1 (Teva Pharmaceutical Industries Ltd., priority 2014, published 2016).
Read-outs that look alike come from different tables or passages of the source.

Experiments:
Hygroscopicity = format: physicochemical; conditions: exposure to air
[1] = Chemical stability observed on handling or purification; format: physicochemical; conditions: most organic solvents and aqueous acidic medium
[2] = Particle size distribution by Malvern laser diffraction (Mastersizer S); format: physicochemical; conditions: for PSD by Malvern D(0.9) / PSD by Malvern d(0.1) / PSD by Malvern d(0.5): modified pilot scale, 2.5 kg batch
Method: The particle size distributions were measured by Malvern Laser Diffraction, using the Mastersizer S model. Laser diffraction relies on the fact that diffraction angle of light is inversely proportional to particle size. Properties of particles are measured and interpreted as measurements of a sphere (a sphere being the only shape that can be described by one unique number). In addition, laser diffraction calculates a particle size distribution based around volume terms, thus eliminating particle count from the determination of particle size. The Mastersizer S model measures particles using a single technique and a single range setting.
D(0.1) is the particle size, in microns, below which 10% by volume distribution of the population is found. D(0.5) is the particle size, in microns, below which 50% by volume distribution of the population is found. D(0.9) is the particle size, in microns, below which 90% by volume distribution of the population is found.

Bulk density of powder = format: physicochemical; conditions: production scale
Method: • 1. Mix powder; • 2. Tare a 50 ml empty cylinder on a 0.01 g sensitivity balance; • 3. Transfer the powder, without compacting, to the cylinder being held at approximately a 45 degree angle to achieve an untapped apparent volume of 40 to 50 ml. • 4. Bring the cylinder containing the sample to a vertical position by a sharp move in order to level the volume for reading. • 5. Read the apparent volume (Va) to the nearest graduated unit; • 6. Weigh the cylinder with sample (the balance gives sample weight M); • 7. Calculate bulk density in g/ml according to the following equation: BD=M/Va; • 8. Perform steps 1-7 again and report the average data of duplicates.

[3] = Tapped density of powder (Quantachrome Dual Autotap, 1250 taps); format: physicochemical; conditions: production scale
Source text: • 1. Put the same cylinder used to calculate Bulk Density in a Quantachrome Dual Autotap instrument; • 2. Perform 1250 taps; • 3. Read the tapped volume (Vf) to the nearest graduated unit; • 4. Calculate the tapped density in g/ml according to the following equation: TD=M/Vf; • 5. Perform steps 1-4 again and report the average data of duplicates.

[4] = prior art examples; cited from earlier work
[5] = cited from earlier work
[6] = Solubility in water (description of drug substance); format: physicochemical
Source text: The solubility terms are defined below, in accordance with the United States Pharmacopoeia XXV.

[7] = cited from earlier work; remark: listed apart in the source
[8] = system: active MRI lesions in relapsing MS; conditions: cited from earlier work
[9] = system: acute experimental autoimmune encephalomyelitis (aEAE) model; conditions: in vivo; cited from earlier work
[10] = In vitro AMES test (CRL studies No. 962723 and No. 963892); format: cell-based; conditions: MCQ: pre-incubation method, CRL study No. 962723, MCQME: CRL study No. 963892
[11] = In vivo MN (Covance study No. 8246631)
[12] = laboratory scale, 25 g batch, prior art
[13] = laboratory scale recrystallization, 25 g
[14] = starting material of the recrystallization

SMILES: CCN(C(=O)c1c(O)c2c(N(C)C[C@H](O)[C@@H](O)[C@H](O)[C@H](O)CO)cccc2n(C)c1=O)c1ccccc1 (stereo in doubt) [MEG-LAQ, N-ethyl-4-hydroxy-1-methyl-5-(methyl(2,3,4,5,6-pentahydroxyhexyl)amino)-2-oxo-N-phenyl-1,2-dihydroquinoline-3-carboxamide]
- hygroscopicity (Hygroscopicity): high hygroscopicity

SMILES: CCN(C(=O)c1c(O)c2c(O)cccc2n(C)c1=O)c1ccccc1 [Batch 5-HLAQ, N-ethyl-4,5-dihydroxy-1-methyl-2-oxo-N-phenyl-1,2-dihydroquinoline-3-carboxamide]
- stability in solvents [1]: unstable

SMILES: CCN(C(=O)c1c([O-])c2c(Cl)cccc2n(C)c1=O)c1ccccc1.[Na+] [Batch C]
- PSD D(0.1) ([2]; production scale): 4.1 μm
- PSD D(0.5) ([2]; production scale): 14.0 μm
- PSD D(0.9) ([2]; production scale): 32.0 μm
- Bulk Density (Bulk density of powder): 0.308 g/mL
- Tapped Density [3]: 0.609 g/mL

SMILES: CCN(C(=O)c1c([O-])c2c(Cl)cccc2n(C)c1=O)c1ccccc1.[Na+] [Batch D]
- PSD D(0.5) ([2]; production scale): 14.7 μm
- PSD D(0.9) ([2]; production scale): 33.6 μm
- Bulk Density (Bulk density of powder): 0.288 g/mL

SMILES: CCN(C(=O)c1c([O-])c2c(Cl)cccc2n(C)c1=O)c1ccccc1.[Na+] [Batch E]
- PSD D(0.1) ([2]; production scale): 2.5 μm
- PSD D(0.5) ([2]; production scale): 9.5 μm
- PSD D(0.9) ([2]; production scale): 21.0 μm
- Bulk Density (Bulk density of powder): 0.245 g/mL
- Tapped Density [3]: 0.460 g/mL

SMILES: CCN(C(=O)c1c([O-])c2c(Cl)cccc2n(C)c1=O)c1ccccc1.[Na+] [Example 13 of U.S. Pat. No. 7,884,208]
- Tapped Density (in words) [4]: high

SMILES: CCN(C(=O)c1c([O-])c2c(Cl)cccc2n(C)c1=O)c1ccccc1.[Na+] [Example 14 of U.S. Pat. No. 7,884,208]
- size of 10% or more of the total amount by volume of the particles ([5]; prior art example): less than 5 microns
- Tapped Density (in words) [4]: undesired

SMILES: CCN(C(=O)c1c([O-])c2c(Cl)cccc2n(C)c1=O)c1ccccc1.[Na+] [Example 15 from U.S. Pat. No. 7,884,208]
- PSD by Malvern D(0.9) [5, 12]: 51.8 um
- PSD by Malvern d(0.1) [5, 12]: 6.1 um
- PSD by Malvern d(0.5) [5, 12]: 21.2 um

SMILES: CCN(C(=O)c1c([O-])c2c(Cl)cccc2n(C)c1=O)c1ccccc1.[Na+] [Laboratory Scale Batch A]
- PSD D(0.1) [2, 13]: 2.3 μm
- PSD D(0.5) [2, 13]: 10.8 μm
- PSD D(0.9) [2, 13]: 32.7 μm

SMILES: CCN(C(=O)c1c([O-])c2c(Cl)cccc2n(C)c1=O)c1ccccc1.[Na+] [Laboratory Scale Batch B]
- PSD D(0.1) [2, 13]: 2.6 μm
- PSD D(0.5) [2, 13]: 12.4 μm
- PSD D(0.9) [2, 13]: 34.3 μm

SMILES: CCN(C(=O)c1c([O-])c2c(Cl)cccc2n(C)c1=O)c1ccccc1.[Na+] [Laquinimod sodium]
- solubility in water [6]: freely soluble
- oral bioavailability [7]: high

SMILES: CCN(C(=O)c1c(O)c2c(Cl)cccc2n(C)c1=O)c1ccccc1 [Laquinimod, N-ethyl-N-phenyl-1,2,-dihydro-4-hydroxy-5-chloro-1-methyl-2-oxoquinoline-3-carboxamide]
- development of active MRI lesions [8]: can reduce development of active MRI lesions
- efficacy in aEAE model [9]: effective

SMILES: Cn1c(=O)cc(O)c2c(Cl)cccc21 [MCQ, 5-chloro-4-hydroxy-1-methylquinolin-2(1H)-one]
- AMES test genotoxic activity [10]: AMES data negative in the pre-incubation

SMILES: COC(=O)c1c(O)c2c(Cl)cccc2n(C)c1=O [MCQME, methyl 5-chloro-4-hydroxy-1-methyl-2-oxo-1,2-dihydroquinoline-3-carboxylate]
- AMES test genotoxic activity [10]: Weak genotoxic activity in the in vitro
- in vivo MN [11]: negative in the in vivo MN

SMILES: CCN(C(=O)c1c([O-])c2c(Cl)cccc2n(C)c1=O)c1ccccc1.[Na+] [Pilot Scale Batch A]
- PSD by Malvern D(0.9) [2]: 33.8 um
- PSD by Malvern d(0.1) [2]: 3.3 um
- PSD by Malvern d(0.5) [2]: 12.9 um

SMILES: CCN(C(=O)c1c([O-])c2c(Cl)cccc2n(C)c1=O)c1ccccc1.[Na+] [Pilot Scale Batch B]
- PSD by Malvern D(0.9) [2]: 33.9 um
- PSD by Malvern d(0.1) [2]: 4.1 um
- PSD by Malvern d(0.5) [2]: 13.5 um

SMILES: CCN(C(=O)c1c([O-])c2c(Cl)cccc2n(C)c1=O)c1ccccc1.[Na+] [crude laquinimod sodium]
- particle size d(0.1) [2, 14]: 1-2 μ
- particle size d(0.5) [2, 14]: 6-11 μ
- particle size d(0.9) [2, 14]: 20-35 μ
